# Assay results published in ChEMBL document CHEMBL3351520, “Discovery of lesser known flavones as inhibitors of NF-κB signaling in MDA-MB-231 breast cancer cells--A SAR study” (Bioorg Med Chem Lett, 2014).
# Activity calls are given as the source filed them. The rule behind the calls is not given here.
# Key:
# [1] = target: T1, Nuclear factor NF-kappa-B complex (Homo sapiens) (UniProt Q00653+P19838+Q04206); experiment: Inhibition of non-stimulated NF-kappaB signaling (unknown origin) expressed in MDA-MB-231 cells at 5 uM incubated for 16 hrs by luciferase reporter gene assay; type: cell-based
# T1 sequence (P19838 whole entry, looked up): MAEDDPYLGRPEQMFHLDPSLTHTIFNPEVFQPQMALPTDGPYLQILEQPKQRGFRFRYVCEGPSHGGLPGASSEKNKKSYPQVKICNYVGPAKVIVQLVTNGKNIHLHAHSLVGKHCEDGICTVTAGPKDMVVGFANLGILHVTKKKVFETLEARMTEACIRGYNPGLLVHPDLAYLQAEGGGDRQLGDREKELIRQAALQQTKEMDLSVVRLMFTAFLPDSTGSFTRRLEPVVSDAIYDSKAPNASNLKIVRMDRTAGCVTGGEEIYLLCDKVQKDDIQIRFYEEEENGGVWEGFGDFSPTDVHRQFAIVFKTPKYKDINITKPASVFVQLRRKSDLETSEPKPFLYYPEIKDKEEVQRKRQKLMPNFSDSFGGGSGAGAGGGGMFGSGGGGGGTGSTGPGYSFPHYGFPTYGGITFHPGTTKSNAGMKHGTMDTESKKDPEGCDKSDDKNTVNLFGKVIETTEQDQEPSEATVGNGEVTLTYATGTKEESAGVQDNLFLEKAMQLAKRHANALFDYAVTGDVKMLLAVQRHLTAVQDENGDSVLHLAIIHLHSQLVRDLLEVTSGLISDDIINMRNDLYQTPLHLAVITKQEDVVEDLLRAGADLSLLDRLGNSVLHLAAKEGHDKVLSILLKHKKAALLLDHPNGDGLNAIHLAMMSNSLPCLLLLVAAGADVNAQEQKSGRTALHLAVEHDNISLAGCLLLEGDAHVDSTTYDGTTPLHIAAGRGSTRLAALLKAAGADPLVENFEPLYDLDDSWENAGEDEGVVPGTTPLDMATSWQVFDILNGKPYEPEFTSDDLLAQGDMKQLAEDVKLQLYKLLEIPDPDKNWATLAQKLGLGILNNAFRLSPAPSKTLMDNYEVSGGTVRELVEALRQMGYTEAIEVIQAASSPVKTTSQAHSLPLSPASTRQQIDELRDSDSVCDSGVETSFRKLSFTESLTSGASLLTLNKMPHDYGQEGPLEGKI
# T1 sequence (Q00653 whole entry, looked up): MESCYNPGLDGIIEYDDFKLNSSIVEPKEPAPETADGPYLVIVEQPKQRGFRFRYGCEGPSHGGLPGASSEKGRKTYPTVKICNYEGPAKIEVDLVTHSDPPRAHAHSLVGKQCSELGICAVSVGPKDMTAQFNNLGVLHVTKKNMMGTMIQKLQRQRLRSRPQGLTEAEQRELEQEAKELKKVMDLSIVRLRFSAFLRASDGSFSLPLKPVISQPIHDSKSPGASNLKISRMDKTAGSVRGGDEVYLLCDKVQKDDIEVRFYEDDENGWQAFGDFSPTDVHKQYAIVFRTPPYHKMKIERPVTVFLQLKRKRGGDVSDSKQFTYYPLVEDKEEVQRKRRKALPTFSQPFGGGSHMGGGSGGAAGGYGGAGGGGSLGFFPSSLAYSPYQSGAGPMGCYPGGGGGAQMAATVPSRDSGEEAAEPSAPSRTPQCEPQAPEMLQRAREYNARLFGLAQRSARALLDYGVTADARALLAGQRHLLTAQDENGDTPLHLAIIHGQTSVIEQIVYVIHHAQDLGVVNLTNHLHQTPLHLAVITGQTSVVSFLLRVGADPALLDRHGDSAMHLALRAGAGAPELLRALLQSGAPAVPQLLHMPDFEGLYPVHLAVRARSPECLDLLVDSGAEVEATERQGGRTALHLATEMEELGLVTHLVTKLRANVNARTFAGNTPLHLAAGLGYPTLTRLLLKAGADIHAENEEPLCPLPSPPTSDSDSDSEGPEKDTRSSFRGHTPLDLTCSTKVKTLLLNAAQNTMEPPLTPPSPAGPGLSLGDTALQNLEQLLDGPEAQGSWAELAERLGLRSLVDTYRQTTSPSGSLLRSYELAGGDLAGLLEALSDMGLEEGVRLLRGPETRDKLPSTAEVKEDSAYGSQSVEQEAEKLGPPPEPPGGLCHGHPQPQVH
# T1 sequence (Q04206 whole entry, looked up): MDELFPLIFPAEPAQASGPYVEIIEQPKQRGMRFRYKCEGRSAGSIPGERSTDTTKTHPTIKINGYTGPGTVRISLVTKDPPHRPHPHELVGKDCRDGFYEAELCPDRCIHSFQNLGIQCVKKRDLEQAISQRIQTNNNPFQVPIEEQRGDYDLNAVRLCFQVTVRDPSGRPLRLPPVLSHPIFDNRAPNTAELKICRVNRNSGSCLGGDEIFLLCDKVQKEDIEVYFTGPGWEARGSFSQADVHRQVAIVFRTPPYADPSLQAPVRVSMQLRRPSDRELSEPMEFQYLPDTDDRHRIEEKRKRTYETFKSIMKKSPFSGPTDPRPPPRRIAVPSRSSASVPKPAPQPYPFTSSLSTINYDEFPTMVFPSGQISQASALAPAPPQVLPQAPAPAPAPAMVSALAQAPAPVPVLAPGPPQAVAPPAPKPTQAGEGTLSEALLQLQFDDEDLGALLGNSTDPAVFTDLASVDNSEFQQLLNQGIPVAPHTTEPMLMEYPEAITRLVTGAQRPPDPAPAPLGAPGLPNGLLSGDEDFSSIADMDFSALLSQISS
# [2] = target: T1, Nuclear factor NF-kappa-B complex (Homo sapiens); experiment: Inhibition of doxorubicin-stimulated NF-kappaB signaling (unknown origin) expressed in MDA-MB-231 cells at 5 uM incubated for 16 hrs by luciferase reporter gene assay; type: cell-based
# [3] = target: T1, Nuclear factor NF-kappa-B complex (Homo sapiens); experiment: Inhibition of NF-kappaB signaling in human MDA-MB-231 cells assessed as reduction in PMA-stimulated MMP9 mRNA expression at 5 uM pre-incubated for 8 hrs before PMA stimulation for 4 hrs by quantitative RT-PCR method; type: cell-based
# [4] = target: T1, Nuclear factor NF-kappa-B complex (Homo sapiens); experiment: Inhibition of NF-kappaB signaling in human MDA-MB-231 cells assessed as reduction in PMA-stimulated COX2 mRNA expression at 5 uM pre-incubated for 8 hrs before PMA stimulation for 4 hrs by quantitative RT-PCR method; type: cell-based
# [5] = target: T1, Nuclear factor NF-kappa-B complex (Homo sapiens); experiment: Inhibition of basal NF-kappaB signaling in human MDA-MB-231 cells assessed as reduction in MMP9 mRNA expression at 25 uM by quantitative RT-PCR method relative to untreated control; type: cell-based
# [6] = target: T1, Nuclear factor NF-kappa-B complex (Homo sapiens); experiment: Inhibition of NF-kappaB signaling in human MDA-MB-231 cells assessed as reduction in PMA-stimulated MMP9 mRNA expression at 25 uM pre-incubated before PMA stimulation by quantitative RT-PCR method relative to untreated control; type: cell-based
# [7] = target: T1, Nuclear factor NF-kappa-B complex (Homo sapiens); experiment: Inhibition of basal NF-kappaB signaling in human MDA-MB-231 cells assessed as reduction in COX2 mRNA expression at 25 uM by quantitative RT-PCR method relative to untreated control; type: cell-based
# [8] = target: T1, Nuclear factor NF-kappa-B complex (Homo sapiens); experiment: Inhibition of NF-kappaB signaling in human MDA-MB-231 cells assessed as reduction in PMA-stimulated COX2 mRNA expression at 25 uM pre-incubated before PMA stimulation by quantitative RT-PCR method relative to untreated control; type: cell-based
# [9] = test system: MDA-MB-231; experiment: Induction apoptosis in PMA-stimulated human MDA-MB-231 cells assessed as mitochondrial disruption at 10 uM after 48 hrs by JC1 staining based fluorescence assay; type: functional, cell-based
# [10] = target: T1, Nuclear factor NF-kappa-B complex (Homo sapiens); experiment: Effect on NF-kappaB signaling in human MDA-MB-231 cells assessed as increase in MMP9 mRNA expression at 25 uM by quantitative RT-PCR method; type: cell-based
# [11] = target: T1, Nuclear factor NF-kappa-B complex (Homo sapiens); experiment: Effect on NF-kappaB signaling in human MDA-MB-231 cells assessed as increase in COX2 mRNA expression at 25 uM by quantitative RT-PCR method; type: cell-based
# [12] = test system: MDA-MB-231; experiment: Inhibition of cell migration of PMA-stimulated human MDA-MB-231 cells; type: functional, cell-based
# [13] = test system: MDA-MB-231; experiment: Induction apoptosis in PMA-stimulated human MDA-MB-231 cells assessed as mitochondrial disruption 3.125 to 25 uM uM after 48 hrs by JC1 staining based fluorescence assay; type: functional, cell-based
# [14] = target: T1, Nuclear factor NF-kappa-B complex (Homo sapiens); experiment: Inhibition of basal NF-kappaB signaling in human MDA-MB-231 cells assessed as reduction in MMP9 mRNA expression at 3.125 uM by quantitative RT-PCR method relative to untreated control; type: cell-based
# [15] = target: T1, Nuclear factor NF-kappa-B complex (Homo sapiens); experiment: Inhibition of basal NF-kappaB signaling in human MDA-MB-231 cells assessed as reduction in MMP9 mRNA expression at 6.25 uM by quantitative RT-PCR method relative to untreated control; type: cell-based
# [16] = target: T1, Nuclear factor NF-kappa-B complex (Homo sapiens); experiment: Inhibition of basal NF-kappaB signaling in human MDA-MB-231 cells assessed as reduction in MMP9 mRNA expression at 12.5 uM by quantitative RT-PCR method relative to untreated control; type: cell-based
# [17] = target: T1, Nuclear factor NF-kappa-B complex (Homo sapiens); experiment: Inhibition of basal NF-kappaB signaling in human MDA-MB-231 cells assessed as reduction in MMP9 mRNA expression at 50 uM by quantitative RT-PCR method relative to untreated control; type: cell-based
# [18] = target: T1, Nuclear factor NF-kappa-B complex (Homo sapiens); experiment: Inhibition of NF-kappaB signaling in human MDA-MB-231 cells assessed as reduction in PMA-stimulated MMP9 mRNA expression at 12.5 uM pre-incubated before PMA stimulation by quantitative RT-PCR method relative to untreated control; type: cell-based
# [19] = target: T1, Nuclear factor NF-kappa-B complex (Homo sapiens); experiment: Inhibition of NF-kappaB signaling in human MDA-MB-231 cells assessed as reduction in PMA-stimulated MMP9 mRNA expression at 50 uM pre-incubated before PMA stimulation by quantitative RT-PCR method relative to untreated control; type: cell-based
# [20] = target: T1, Nuclear factor NF-kappa-B complex (Homo sapiens); experiment: Inhibition of basal NF-kappaB signaling in human MDA-MB-231 cells assessed as reduction in MMP9 mRNA expression at 12.5 uM by quantitative RT-PCR method; type: cell-based
# [21] = test system: MDA-MB-231; experiment: Cytotoxicity against non-stimulated human MDA-MB-231 cells assessed as induction of cell death up to 25 uM after 48 hrs by MTT assay; type: functional
# [22] = test system: MDA-MB-231; experiment: Cytotoxicity against PMA-stimulated human MDA-MB-231 cells assessed as induction of cell death up to 25 uM after 48 hrs by MTT assay; type: functional
# [23] = test system: MDA-MB-231; experiment: Cytotoxicity against non-stimulated human MDA-MB-231 cells assessed as induction of cell death at 50 uM after 48 hrs by MTT assay; type: functional
# [24] = test system: MDA-MB-231; experiment: Cytotoxicity against PMA-stimulated human MDA-MB-231 cells assessed as induction of cell death at 50 uM after 48 hrs by MTT assay; type: functional
# [25] = test system: MDA-MB-231; experiment: Induction of cell cycle arrest in PMA-stimulated human MDA-MB-231 cells assessed as accumulation at G2/M phase at 25 uM after 48 hrs by propidium iodide staining based flow cytometry; type: functional
# [26] = test system: MDA-MB-231; experiment: Induction of cell cycle arrest in un-stimulated human MDA-MB-231 cells assessed as accumulation at G2/M phase at 25 uM after 48 hrs by propidium iodide staining based flow cytometry; type: functional
# [27] = Toxicity against human MDA-MB-231 cells after 48 hrs by MTT assay; type: cell-based; conditions: read-out: MNCC
# [28] = test system: MDA-MB-231; experiment: Induction of cell cycle arrest in PMA-stimulated human MDA-MB-231 cells assessed as accumulation at G1 phase at 25 uM after 48 hrs by propidium iodide staining based flow cytometry (reference value: 52%); type: functional
# [29] = test system: MDA-MB-231; experiment: Induction of cell cycle arrest in PMA-stimulated human MDA-MB-231 cells assessed as accumulation at S phase at 25 uM after 48 hrs by propidium iodide staining based flow cytometry (reference value: 29%); type: functional
# [30] = test system: MDA-MB-231; experiment: Induction of cell cycle arrest in PMA-stimulated human MDA-MB-231 cells assessed as accumulation at G2/M phase at 25 uM after 48 hrs by propidium iodide staining based flow cytometry (reference value: 19%); type: functional
# [31] = test system: MDA-MB-231; experiment: Inhibition of cell invasion of PMA-stimulated human MDA-MB-231 cells; type: functional, cell-based
# [32] = test system: MDA-MB-231; experiment: Induction apoptosis in PMA-stimulated human MDA-MB-231 cells assessed as mitochondrial disruption up to 50 uM uM after 48 hrs by JC1 staining based fluorescence assay; type: functional, cell-based
# [33] = target: T1, Nuclear factor NF-kappa-B complex (Homo sapiens); experiment: Inhibition of NF-kappaB signaling in human MDA-MB-231 cells assessed as reduction in PMA-stimulated MMP9 protein expression at 6.25 to 50 uM pre-incubated before PMA stimulation by SDS-PAGE gelatin zymography; type: cell-based
compound,measurement,setting,value
C=C1C(=O)O[C@@H]2C3O[C@]3(C)CC/C=C(\C)CC[C@@H]12 (stereo partly drawn),inhibition,[1],Active
same,inhibition,[2],Active
same,inhibition,[3],Active
same,inhibition,[4],Active
COc1ccc(-c2cc(=O)c3c(O)cc(O)cc3o2)cc1,inhibition,[5],Active
same,inhibition,[6],Active
same,inhibition,[7],Active
same,inhibition,[8],Active
COc1ccc(-c2cc(=O)c3c(O)cc(O)cc3o2)cc1O,inhibition,[5],Active
same,inhibition,[6],Active
same,inhibition,[7],Active
same,inhibition,[8],Active
COc1cccc2c1C(=O)c1c(O)c3c(c(O)c1C2=O)C[C@@](O)(C(=O)CO)C[C@@H]3O[C@H]1C[C@H](N)[C@H](O)[C@H](C)O1,Activity,[9],Active
O=c1c(O)c(-c2ccc(O)c(O)c2)oc2c(O)c(O)cc(O)c12,Activity,[10],Active
same,Activity,[11],Active
O=c1c(O)c(-c2ccc(O)c(O)c2)oc2cc(O)c(O)c(O)c12,Activity,[10],Active
same,Activity,[11],Active
O=c1c(O)c(-c2ccc(O)c(O)c2)oc2cc(O)cc(O)c12,inhibition,[5],Active
same,inhibition,[6],Active
same,inhibition,[7],Active
same,inhibition,[8],Active
same,inhibition,[12],inactive
same,Activity,[13],Active
COc1cc(-c2cc(=O)c3c(O)cc(O)cc3o2)ccc1O [CHRYSOERIOL],fold change (FC),[14],0.708
same,fold change (FC),[15],0.361
same,fold change (FC),[16],0.208
same,fold change (FC),[5],0.211
same,fold change (FC),[17],0.204
same,fold change (FC),[18],3.67
same,fold change (FC),[6],2.11
same,fold change (FC),[19],1.33
same,inhibition,[7],Active
same,inhibition,[8],Active
same,inhibition,[20],80%
same,Activity,[21],<10%
same,Activity,[22],<10%
same,Activity,[23],10%
same,Activity,[24],10%
same,Activity,[25],Dose-dependent effect
same,Activity,[26],Dose-dependent effect
same,MNTC at 48 h,[27],25 µM
same,Activity,[28],34%
same,Activity,[29],27%
same,Activity,[30],39%
same,inhibition,[12],Dose-dependent effect
same,inhibition,[31],Dose-dependent effect
same,Activity,[32],inactive
same,inhibition,[33],Active
